In DBAASP:
Values after ≈ are worked out from the molar mass of the structure shown. Blank lines part the entries; values can stand above or below the compound they belong to.

Legend:
Test in all cases: ≥ marks a high value that may be exact or a test limit, other limits are often not marked, values filed in µg/mL are converted to µM
[1] = test system: Pseudomonas aeruginosa CGMCC 1.2421
[2] = test system: Bacillus subtilis CGMCC 1.3376
[3] = test system: Staphylococcus aureus CGMCC 1.8721
[4] = test system: Escherichia coli CGMCC 1.8732
[5] = test system: Staphylococcus epidermidis CGMCC 1.4260
[6] = test system: Klebsiella pneumoniae CGMCC 1.1736
[7] = test system: Candida albicans ATCC 10231
[8] = test system: Saccharomyces cerevisiae SZMC 0644
Candida krusei CBS 573 = test system: Candida krusei CBS 573
[9] = test system: Candida parapsilosis CBS 604
[10] = test system: Staphylococcus aureus 5118
[11] = test system: Staphylococcus aureus ATCC 9144
[12] = test system: Staphylococcus aureus E4049
[13] = test system: Pseudomonas aeruginosa Q14-0208
[14] = test system: Listeria monocytogenes NCTC 11994
[15] = test system: Klebsiella pneumoniae Q14-0095
[16] = test system: Campylobacter jejuni NCTC 11351
[17] = test system: Staphylococcus aureus NCTC 12493
Escherichia coli K-12 = test system: Escherichia coli K-12
[18] = test system: Pseudomonas aeruginosa Q12-0535
[19] = test system: Pseudomonas aeruginosa Q14-0890
[20] = test system: Pseudomonas aeruginosa ATCC 27853
[21] = test system: Pseudomonas aeruginosa Q12-0581
[22] = test system: Acinetobacter baumannii Q13-0717
[23] = test system: Acinetobacter baumannii Q12-0867
[24] = test system: Klebsiella pneumoniae NCTC 13442
[25] = test system: Salmonella typhimurium SL1344
[26] = test system: Staphylococcus aureus ATCC 29213
Campylobacter jejuni = test system: Campylobacter jejuni
Escherichia coli = test system: Escherichia coli
[27] = test system: Staphylococcus aureus MRSA-15
[28] = test system: Klebsiella pneumoniae ATCC 700603
[29] = test system: Staphylococcus aureus Q14-0320
[30] = test system: Staphylococcus aureus Q14-0325
[31] = test system: Pseudomonas aeruginosa PAO1
[32] = test system: Acinetobacter baumannii Q12-0809
[33] = test system: Staphylococcus aureus RN4220
[34] = test system: Enterococcus faecalis JH-2-2
[35] = test system: Escherichia coli ATCC 25922
[36] = test system: Listeria monocytogenes KCTC 3710
[37] = test system: Trichosporon beigelii KCTC 7707
[38] = test system: Staphylococcus aureus CCARM 3518
[39] = test system: Staphylococcus aureus CCARM 3090
[40] = test system: Bacillus subtilis KCTC 1998
[41] = test system: Escherichia coli CCARM 1238
[42] = test system: Pseudomonas aeruginosa 4007
[43] = test system: Staphylococcus aureus ATCC 25923
[44] = test system: Candida albicans KCTC 7270
[45] = test system: Salmonella typhimurium KCTC 1926
[46] = test system: Pseudomonas aeruginosa 4891
[47] = test system: Escherichia coli CCARM 1229

Compound: NCCCC[C@H](NC(=O)CNC(=O)[C@H](CCCCN)NC(=O)[C@H](CC(N)=O)NC(=O)[C@@H]1CSSC[C@H](N)C(=O)N1)C(=O)N[C@@H](CC(N)=O)C(=O)N[C@@H](CCCCN)C(=O)NCC(=O)N[C@@H](CO)C(=O)N[C@@H](Cc1cnc[nH]1)C(=O)O [CCNKGKNKGSH]
MIC [7]: 42.5 µM (≈ 49.9 µg/mL)
MIC [8]: ≥ 42.5 µM
MIC (Candida krusei CBS 573): ≥ 42.5 µM
MIC [9]: ≥ 42.5 µM

Compound: CSCC[C@H](NC(=O)[C@H](C)NC(=O)[C@H](C)NC(=O)CNC(=O)[C@H](CCCN=C(N)N)NC(=O)[C@H](CC(=O)O)NC(=O)[C@@H](N)CC(=O)O)C(=O)N[C@@H](Cc1ccccc1)C(=O)N[C@@H](C)C(=O)N[C@H](C(=O)N[C@@H](CC(C)C)C(=O)N[C@@H](Cc1ccccc1)C(=O)N[C@@H](CC(N)=O)C(=O)N[C@@H](C)C(=O)N[C@@H](Cc1ccccc1)C(=O)N[C@@H](CO)C(=O)N[C@@H](CO)C(=O)N[C@@H](CC(C)C)C(=O)N[C@@H](CC(C)C)C(=O)N[C@@H](CCC(=O)O)C(=O)O)C(C)C [DDRGAAMFAVLFNAFSSLLE]
MIC [10]: 2.3 µM (≈ 5 µg/mL)
MIC [11]: ≥ 280 µM
MIC [12]: 7.82 µM (≈ 17 µg/mL)

Compound: CC[C@H](C)[C@H](NC(=O)[C@H](Cc1ccccc1)NC(=O)[C@H](Cc1ccc(O)cc1)NC(=O)[C@@H](NC(=O)[C@H](CCCCN)NC(=O)[C@H](CC(C)C)NC(=O)[C@@H](NC(=O)[C@H](CCCCN)NC(=O)[C@@H](NC(=O)[C@@H](N)CO)[C@@H](C)CC)[C@@H](C)CC)[C@@H](C)CC)C(=O)N[C@@H](CCC(N)=O)C(=O)NCC(=O)N[C@@H](CCCCN)C(=O)N[C@@H](CCCN=C(N)N)C(=O)N[C@@H](Cc1cnc[nH]1)C(=O)N[C@@H](Cc1c[nH]c2ccccc12)C(=O)N[C@@H](CO)C(=O)N[C@@H](Cc1ccccc1)C(=O)O [SIKILKIYFIQGKRHWSF]
MIC [13]: 28.3 µM (≈ 64 µg/mL)
MIC [14]: ≥ 113 µM
MIC [15]: ≥ 56.5 µM
MIC [16]: ≥ 56.5 µM
MIC [17]: 14.1 µM (≈ 32 µg/mL)
MIC (Escherichia coli K-12): ≥ 113 µM
MIC [18]: ≥ 56.5 µM
MIC [19]: 7.06 µM (≈ 16 µg/mL)
MIC [20]: > 56.5 µM
MIC [21]: 14.1 µM (≈ 32 µg/mL)
MIC [22]: 28.3 µM (≈ 64 µg/mL)
MIC [23]: 14.1 µM (≈ 32 µg/mL)
MIC [24]: ≥ 56.5 µM
MIC [25]: ≥ 226 µM
MIC [26]: 14.1 µM (≈ 32 µg/mL)
MIC (Campylobacter jejuni): ≥ 56.5 µM
MIC (Escherichia coli): > 56.5 µM
MIC [27]: ≥ 110 µM
MIC [28]: 56.5 µM (≈ 128 µg/mL)
MIC [29]: 28.3 µM (≈ 64 µg/mL)
MIC [30]: 14.1 µM (≈ 32 µg/mL)
MIC [31]: 226 µM (≈ 512 µg/mL)
MIC [32]: ≥ 56.5 µM
MIC [33]: ≥ 113 µM
MIC [34]: ≥ 113 µM

The next lines start with the values.

MIC [1]: 25 µM (≈ 60.2 µg/mL)
MIC [2]: 6.25 µM (≈ 15 µg/mL)
MIC [3]: ≥ 50 µM
MIC [4]: 25 µM (≈ 60.2 µg/mL)
MIC [5]: 12.5 µM (≈ 30.1 µg/mL)
MIC [6]: ≥ 50 µM
Compound: CC[C@H](C)[C@H](NC(=O)[C@H](C)N)C(=O)NCC(=O)N[C@@H](CO)C(=O)N[C@H](C(=O)N[C@@H](CC(C)C)C(=O)NCC(=O)N[C@@H](C)C(=O)N[C@@H](CC(C)C)C(=O)N[C@@H](C)C(=O)N[C@@H](CCCCN)C(=O)NCC(=O)N[C@@H](CC(C)C)C(=O)N1CCC[C@H]1C(=O)N[C@H](C(=O)N[C@@H](CC(C)C)C(=O)N[C@@H](CCCCN)C(=O)N[C@@H](CO)C(=O)N[C@@H](Cc1c[nH]c2ccccc12)C(=O)N[C@H](C(=O)N[C@@H](CCCCN)C(=O)N[C@@H](CC(N)=O)C(=O)N[C@@H](CCCN=C(N)N)C(N)=O)[C@@H](C)CC)[C@@H](C)O)[C@@H](C)CC [AIGSILGALAKGLPTLKSWIKNR]

MIC [35]: 2 µM (≈ 5.77 µg/mL)
MIC [36]: 8 µM (≈ 23.1 µg/mL)
MIC [37]: ≥ 32 µM
MIC [38]: 4 µM (≈ 11.5 µg/mL)
MIC [20]: 2 µM (≈ 5.77 µg/mL)
MIC [39]: 4 µM (≈ 11.5 µg/mL)
MIC [40]: 4 µM (≈ 11.5 µg/mL)
MIC [41]: 2 µM (≈ 5.77 µg/mL)
MIC [42]: 2 µM (≈ 5.77 µg/mL)
MIC [43]: 4 µM (≈ 11.5 µg/mL)
MIC [44]: ≥ 32 µM
MIC [45]: 2 µM (≈ 5.77 µg/mL)
MIC [46]: 4 µM (≈ 11.5 µg/mL)
MIC [47]: 2 µM (≈ 5.77 µg/mL)
Compound: CC[C@H](C)[C@H](NC(=O)CNC(=O)[C@H](CCC(N)=O)NC(=O)[C@H](Cc1ccccc1)NC(=O)[C@@H](NC(=O)[C@H](CCCCN)NC(=O)[C@H](CCCCN)NC(=O)[C@H](CC(C)C)NC(=O)[C@H](C)NC(=O)[C@H](CC(N)=O)NC(=O)[C@H](CC(C)C)NC(=O)[C@@H](N)Cc1c[nH]c2ccccc12)C(C)C)C(=O)N[C@@H](Cc1cnc[nH]1)C(=O)N[C@@H](CCC(=O)O)C(=O)N[C@@H](C)C(=O)N[C@H](C(=O)N[C@@H](CCCCN)C(=O)N[C@@H](CC(C)C)C(=O)N[C@H](C(=O)N[C@@H](Cc1c[nH]c2ccccc12)C(=O)N[C@@H](CC(N)=O)C(=O)N[C@@H](Cc1cnc[nH]1)C(=O)N[C@H](C(=O)N[C@@H](CCC(N)=O)C(N)=O)C(C)C)[C@@H](C)CC)[C@@H](C)CC [WLNALKKVFQGIHEAIKLIWNHVQ]
